# Measurements: US8518958B2, “Pyrido [2,3-D] pyrimidines and their use as kinase inhibitors” (Forma Therapeutics, Inc., priority 2006, dated 2013)
# Experiments:
# B-Raf delta1-415 = B-Raf delta1-415 (Homo sapiens, UniProt P15056); assay: B-Raf kinase inhibition (MAPH filter plate, 33P-ATP, MEK1 substrate); settings: read-out: Biochemical IC50 B-Raf
# Summary of the method: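 Radiometric filter-binding assay with B-Raf delta1-415 at a level giving 50% turnover, MEK1 substrate and 33P-ATP (12.5 μCi/ml) in 20 mM Mops pH 7.0 with Mg/Mn, 1 h at room temperature. Inhibitor dilution series from 10 μM; EDTA-stopped reactions captured on phosphocellulose filters, counted by scintillation for IC50.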
# HT-29 tumor cells = assay: Anti-proliferative activity, SRB assay; type: cell-based, human; settings: Homo sapiens, HT-29, 72 h, 72 hours exposure, read-out: CELLULAR IC50 HT-29
# Summary of the method: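 Cells at 3,000-15,000/well, plated 24 h before compound, exposed to a concentration range for 72 hours. Proliferation measured by SRB staining after cold TCA fixation, absorbance at OD570; IC50 estimated from % inhibition versus DMSO-treated cells.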
# Chain of B-Raf delta1-415 (P15056 416-766): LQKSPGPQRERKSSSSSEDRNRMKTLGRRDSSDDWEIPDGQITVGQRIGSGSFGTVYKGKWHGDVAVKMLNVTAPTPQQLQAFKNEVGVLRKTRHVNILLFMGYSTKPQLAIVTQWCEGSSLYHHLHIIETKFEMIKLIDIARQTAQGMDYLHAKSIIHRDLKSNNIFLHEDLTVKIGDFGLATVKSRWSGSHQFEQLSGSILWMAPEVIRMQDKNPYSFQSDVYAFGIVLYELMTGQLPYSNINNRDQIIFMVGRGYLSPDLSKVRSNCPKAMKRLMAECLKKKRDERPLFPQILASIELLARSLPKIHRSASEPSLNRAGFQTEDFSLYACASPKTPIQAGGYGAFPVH
IC50 (B-Raf delta1-415) [µM],IC50 (HT-29 tumor cells) [µM],Structure (SMILES)
< 0.1,< 1,"COn1c(=O)c(-c2c(F)cccc2Cl)cc2cnc(Nc3cc(C(=O)N(C)CCO)n(C)c3)nc21 [Compound 193, 6-(2-Chloro-6-fluorophenyl)-2-(5-N-(2-hydroxyethyl)-N-methyl-aminocarbonyl-1-methyl-pyrrol-3-yl)-amino-8-methoxy-pyrido[2,3-d]pyrimidin-7-one]"
< 0.1,< 1,"COCCN(C)C(=O)c1cc(Nc2ncc3cc(-c4c(F)cccc4Cl)c(=O)n(OC)c3n2)cn1C [Compound 194, 6-(2-Chloro-6-fluorophenyl)-2-(5-N-(2-methoxyethyl)-N-methyl-aminocarbonyl-1-methyl-pyrrol-3-yl)-amino-8-methoxy-pyrido[2,3-d]pyrimidin-7-one]"
< 0.5,< 1,"COCCOn1c(=O)c(-c2c(Cl)cccc2Cl)cc2cnc(Nc3ccc(N4CCNCC4)cc3)nc21 [Compound 195, 6-(2,6-Dichlorophenyl)-8-(2-methoxyethyl)oxy-2-(4-piperazinophenyl)-amino-pyrido[2,3-d]pyrimidin-7-one]"
< 0.5,< 1,"COn1c(=O)c(-c2c(Cl)cccc2Cl)cc2cnc(Nc3ccc(CN4CCC(F)(F)C4)cc3)nc21 [Compound 196, 6-(2,6-Dichlorophenyl)-2-(4-(3,3-difluoropyrrolidinomethyl)phenyl)-amino-8-methoxy-pyrido[2,3.-d]pyrimidin-7-one]"
< 0.5,< 1,"COn1c(=O)c(-c2c(F)cccc2Cl)cc2cnc(Nc3cc(C(=O)N4CCOCC4)n(C)c3)nc21 [Compound 197, 6-(2-Chloro-6-fluorophenyl)-8-methoxy-2-(5-morpholinocarbonyl-1-methyl-pyrrol-3-yl)-amino-pyrido[2,3-d]pyrimidin-7-one]"
< 0.1,< 1,"COn1c(=O)c(-c2c(F)cccc2Cl)cc2cnc(Nc3ccc(N4CCNCC4)cc3)nc21 [Compound 198, 6-(2-Chloro-6-fluorophenyl)-8-methoxy-2-(4-piperazinophenyl)-amino-pyrido[2,3-d]pyrimidin-7-one]"
< 0.1,< 1,"COn1c(=O)c(-c2c(F)cccc2Cl)cc2cnc(Nc3ccc(N4CCNCC4)c(Cl)c3)nc21 [Compound 199, 6-(2-Chloro-6-fluorophenyl)-2-(3-chloro-4-piperazinophenyl)-amino-8-methoxy-pyrido[2,3-d]pyrimidin-7-one]"
< 0.5,< 1,"COn1c(=O)c(-c2c(Cl)cccc2Cl)cc2cnc(Nc3ccc(N4CCN(S(C)(=O)=O)CC4)cc3)nc21 [Compound 200, 6-(2,6-Dichlorophenyl)-8-methoxy-2-(4-(4-methylsulfonyl)piperazino-phenyl)-amino-pyrido[2,3-d]pyrimidin-7-one]"
< 0.5,< 1,"COn1c(=O)c(-c2c(Cl)cccc2Cl)cc2cnc(Nc3ccc(CN4CCC4)cc3)nc21 [Compound 201, 2-(4-(1-azacyclobutyl)methylphenyl)-amino-6-(2,6-dichlorophenyl)-8-methoxy-pyrido[2,3-d]pyrimidin-7-one]"
< 0.5,< 1,"O=c1c(-c2c(Cl)cccc2Cl)cc2cnc(Nc3ccc(N4CCNCC4)cc3)nc2n1OCC1CCOCC1 [Compound 202, 6-(2,6-Dichlorophenyl)-8-(tetrahydropyran-4-ylmethyl)oxy-2-(4-piperazinophenyl)-amino-pyrido[2,3-d]pyrimidin-7-one]"
< 0.1,< 1,"COn1c(=O)c(-c2c(F)cccc2Cl)cc2cnc(Nc3ccc(N4CCN(C(C)C)CC4)cc3)nc21 [Compound 203, 6-(2-Chloro-6-fluorophenyl)-8-methoxy-2-(4-(4-(1-methylethyl)piperazino)phenyl)-amino-pyrido[2,3-d]pyrimidin-7-one]"
< 0.1,< 1,"CCCN1CCN(c2ccc(Nc3ncc4cc(-c5c(Cl)cccc5Cl)c(=O)n(OC)c4n3)cc2)CC1 [Compound 204, 6-(2,6-Dichlorophenyl)-8-methoxy-2-(4-(4-propylpiperazino)phenyl)-amino-pyrido[2,3-d]pyrimidin-7-one]"
< 0.1,< 1,"COCCOn1c(=O)c(-c2c(Cl)cccc2Cl)cc2cnc(Nc3ccc(N4CCN(C(C)C)CC4)cc3)nc21 [Compound 205, 6-(2,6-Dichlorophenyl)-8-(2-methoxyethyl)oxy-2-(4-(4-(1-methylethyl)piperazino)phenyl)-amino-pyrido[2,3-d]pyrimidin-7-one]"
< 0.5,< 1,"CC(C)N1CCN(c2ccc(Nc3ncc4cc(-c5c(Cl)cccc5Cl)c(=O)n(OCC5CCOCC5)c4n3)cc2)CC1 [Compound 206, 6-(2,6-Dichlorophenyl)-8-(tetrahydropyran-4-ylmethyl)oxy-2-(4-(4-(1-methylethyl)piperazino)phenyl)-amino-pyrido[2,3-d]pyrimidin-7-one]"
< 0.5,< 1,"CCCN1CCN(c2ccc(Nc3ncc4cc(-c5c(Cl)cccc5Cl)c(=O)n(OCCOC)c4n3)cc2)CC1 [Compound 207, 2-(4-(4-propylpiperazino)phenyl)-amino-6-(2,6-dichlorophenyl)-8-(2-methoxyethyl)oxy-pyrido[2,3-d]pyrimidin-7-one]"
< 0.1,< 1,"COn1c(=O)c(-c2c(F)cccc2Cl)cc2cnc(Nc3cc(C(=O)N4CCNCC4)n(C)c3)nc21 [Compound 208, 6-(2-Chloro-6-fluorophenyl)-8-methoxy-2-(5-piperazinocarbonyl-1-methyl-pyrrol-3-yl)-amino-pyrido[2,3-d]pyrimidin-7-one]"
< 1,< 1,"CO/N=C/c1ccc(Nc2ncc3cc(-c4c(Cl)cccc4Cl)c(=O)n(OC)c3n2)cc1 [Compound 209, 2-(4-(methoximino)methylphenyl)-amino-6-(2,6-dichlorophenyl)-8-methoxy-pyrido[2,3-d]pyrimidin-7-one]"
< 0.5,< 1,"COn1c(=O)c(-c2c(Cl)cccc2Cl)cc2cnc(Nc3ccc(/C=N/O)cc3)nc21 [Compound 210, 2-(4-(hydroximino)methylphenyl)-amino-6-(2,6-dichlorophenyl)-8-methoxy-pyrido[2,3-d]pyrimidin-7-one]"
< 0.1,< 1,"COn1c(=O)c(-c2c(F)cccc2Cl)cc2cnc(Nc3ccc(N4CCNCC4)c(F)c3)nc21 [Compound 211, 6-(2-Chloro-6-fluorophenyl)-2-(3-fluoro-4-piperazinophenyl)-amino-8-methoxy-pyrido[2,3-d]pyrimidin-7-one]"
< 0.1,< 1,"CN1CC[C@H](COn2c(=O)c(-c3c(F)cccc3Cl)cc3cnc(Nc4ccc(N5CCOCC5)cc4)nc32)C1 [Compound 212, 6-(2-Chloro-6-fluorophenyl)-8-(3-(S)-1-methyl-pyrrolidin-3-yl)methoxy-2-(4-morpholinophenyl)-amino-pyrido[2,3-d]pyrimidin-7-one]"
< 0.1,< 1,"COn1c(=O)c(-c2c(F)cccc2Cl)cc2cnc(Nc3ccc(N4CCNCC4)c(C#N)c3)nc21 [Compound 213, 6-(2-Chloro-6-fluorophenyl)-8-methoxy-2-(3-cyano-4-piperazinophenyl)-amino-pyrido[2,3-d]pyrimidin-7-one]"
< 0.1,< 1,"COc1cc(Nc2ncc3cc(-c4c(F)cccc4Cl)c(=O)n(OC)c3n2)ccc1N1CCNCC1 [Compound 214, 6-(2-Chloro-6-fluorophenyl)-8-methoxy-2-(3-methoxy-4-piperazinophenyl)-amino-pyrido[2,3-d]pyrimidin-7-one]"
< 0.1,< 1,O=c1c(-c2c(F)cccc2Cl)cc2cnc(Nc3ccc(N4CCNCC4)cc3)nc2n1OCC1CCOCC1 [Compound 215]
< 0.5,< 1,"COCCOn1c(=O)c(-c2c(F)cccc2Cl)cc2cnc(Nc3ccc(N4CCNCC4)cc3)nc21 [Compound 216, 6-(2-Chloro-6-fluorophenyl)-8-(2-methoxyethyl)oxy-2-(4-piperazinophenyl)-amino-pyrido[2,3-d]pyrimidin-7-one]"
< 0.5,< 1,"CCCN1CCN(c2ccc(Nc3ncc4cc(-c5c(F)cccc5Cl)c(=O)n(OC)c4n3)cc2)CC1 [Compound 217, 6-(2-Chloro-6-fluorophenyl)-8-methoxy-2-(4-(4-propylpiperazino)phenyl)-amino-pyrido[2,3-d]pyrimidin-7-one]"
< 0.1,< 1,"COn1c(=O)c(-c2c(F)cccc2Cl)cc2cnc(Nc3ccc(N4CCNCC4)c(CO)c3)nc21 [Compound 218, 6-(2-Chloro-6-fluorophenyl)-8-methoxy-2-(3-hydroxymethyl-4-piperazinophenyl)-amino-pyrido[2,3-d]pyrimidin-7-one]"
< 0.5,< 10,"COn1c(=O)c(-c2c(Cl)cccc2Cl)cc2cnc(Nc3cccc(O)c3)nc21 [Compound 219, 6-(2,6-Dichlorophenyl)-2-(3-hydroxyphenyl)-amino-8-methoxy-pyrido[2,3-d]pyrimidin-7-one]"
< 0.5,< 1,COn1c(=O)c(-c2c(F)cccc2Cl)cc2cnc(Nc3cc(C(=O)N(C)CCOC(=O)c4cccnc4)n(C)c3)nc21 [Compound 220]
< 0.1,< 1,"COn1c(=O)c(-c2c(Cl)cccc2Cl)cc2cnc(Nc3ccc(N4CCCN(C)CC4)cc3)nc21 [Compound 221, 6-(2,6-Dichlorophenyl)-8-methoxy-2-(4-(4-methyl-1,4-diazacycloheptyl)phenyl-)-amino-pyrido[2,3-d]pyrimidin-7-one]"
< 0.1,< 1,"COn1c(=O)c(-c2c(F)cccc2Cl)cc2cnc(Nc3ccc(C4CCNCC4)cc3)nc21 [Compound 222, 6-(2-Chloro-6-fluorophenyl)-8-methoxy-2-(4-(piperidin-4-yl)phenyl)-amino-pyrido[2,3-d]pyrimidin-7-one]"
